In ChEMBL document CHEMBL2440050 (ACS Med Chem Lett, 2013):

Legend:
HCT-116 [1] = experiment: Growth inhibition of vinblastine-sensitive human HCT116 cells after 72 hrs by phosphatase assay; type: functional, cell-based; conditions: HCT-116, 72 h
HCT-116/VM46 [2] = experiment: Growth inhibition of vinblastine-resistant human HCT116/VM46 cells overexpressing P-gp after 72 hrs by phosphatase assay; type: functional, cell-based; conditions: HCT-116/VM46, 72 h
L1210 [3] = experiment: Growth inhibition of mouse L1210 cells after 72 hrs by phosphatase assay; type: functional, cell-based; conditions: L1210, 72 h
HCT-116/VM46 [4] = experiment: Ratio of vinblastine IC50 to compound IC50 for vinblastine-resistant human HCT116/VM46 cells overexpressing P-gp by MTS assay; type: functional
PA-1 [5] = experiment: Ratio of vinblastine IC50 to compound IC50 for human PA1 cells by MTS assay; type: functional
ZR-75-1 [6] = experiment: Ratio of vinblastine IC50 to compound IC50 for human ZR-75-1 cells by MTS assay; type: functional
T47D [7] = experiment: Ratio of vinblastine IC50 to compound IC50 for human T47D cells by MTS assay; type: functional
[8] = Ratio of vinblastine IC50 to compound IC50 for human SW403 cells by MTS assay; type: functional
MDA-MB-468 [9] = experiment: Ratio of vinblastine IC50 to compound IC50 for human MDA-MB-468 cells by MTS assay; type: functional
LS174T = experiment: Ratio of vinblastine IC50 to compound IC50 for human LS 174T cells by MTS assay; type: functional
[10] = Ratio of vinblastine IC50 to compound IC50 for human LNCaP-FGC cells by MTS assay; type: functional
[11] = Ratio of vinblastine IC50 to compound IC50 for human KPL4 cells by MTS assay; type: functional
HCT-116 [12] = experiment: Ratio of vinblastine IC50 to compound IC50 for vinblastine-sensitive human HCT116 cells by MTS assay; type: functional
HCC70 [13] = experiment: Ratio of vinblastine IC50 to compound IC50 for human HCC70 cells by MTS assay; type: functional
HCC1143 [14] = experiment: Ratio of vinblastine IC50 to compound IC50 for human HCC1143 cells by MTS assay; type: functional
NCI-H520 [15] = experiment: Ratio of vinblastine IC50 to compound IC50 for human NCI-H520 cells by MTS assay; type: functional
AU565 [16] = experiment: Ratio of vinblastine IC50 to compound IC50 for human AU565 cells by MTS assay; type: functional
HCT-116 [17] = experiment: Ratio of IC50 for vinblastine-resistant human HCT116/VM46 cells overexpressing P-gp to IC50 for vinblastine-sensitive human HCT116 cells by phosphatase assay; type: functional
HCT-116/VM46 [18] = experiment: Growth inhibition of vinblastine-resistant human HCT116/VM46 cells overexpressing P-gp after 72 hrs by MTS assay; type: functional, cell-based; conditions: HCT-116/VM46, 72 h
PA-1 [19] = experiment: Growth inhibition of human PA1 cells after 72 hrs by MTS assay; type: functional, cell-based; conditions: PA-1, 72 h
T47D [20] = experiment: Growth inhibition of human T47D cells after 72 hrs by MTS assay; type: functional, cell-based
ZR-75-1 [21] = experiment: Growth inhibition of human ZR-75-1 cells after 72 hrs by MTS assay; type: functional, cell-based; conditions: ZR-75-1, 72 h
[22] = Growth inhibition of human SW403 cells after 72 hrs by MTS assay; type: functional, cell-based; conditions: SW-403, 72 h
MDA-MB-468 [23] = experiment: Growth inhibition of human MDA-MB-468 cells after 72 hrs by MTS assay; type: functional, cell-based; conditions: MDA-MB-468, 72 h
MCF7 = experiment: Growth inhibition of human MCF7 cells after 72 hrs by MTS assay; type: functional, cell-based; conditions: MCF7, 72 h
[24] = Growth inhibition of human LS 174T cells after 72 hrs by MTS assay; type: functional, cell-based; conditions: LS174T
[25] = Growth inhibition of human LNCaP-FGC cells after 72 hrs by MTS assay; type: functional, cell-based; conditions: LNCaP-Clone-FGC
[26] = Growth inhibition of human KPL4 cells after 72 hrs by MTS assay; type: functional, cell-based; conditions: KPL4, 72 h
HCC70 [27] = experiment: Growth inhibition of human HCC70 cells after 72 hrs by MTS assay; type: functional, cell-based; conditions: HCC70, 72 h
HCT-116 [28] = experiment: Growth inhibition of vinblastine-sensitive human HCT116 cells after 72 hrs by MTS assay; type: functional, cell-based; conditions: HCT-116, 72 h
HCC1143 [29] = experiment: Growth inhibition of human HCC1143 cells after 72 hrs by MTS assay; type: functional, cell-based; conditions: HCC1143, 72 h
NCI-H520 [30] = experiment: Growth inhibition of human NCI-H520 cells after 72 hrs by MTS assay; type: functional, cell-based; conditions: NCI-H520, 72 h
AU565 [31] = experiment: Growth inhibition of human AU565 cells after 72 hrs by MTS assay; type: functional, cell-based; conditions: AU565, 72 h
HCT-116 [32] = experiment: Ratio of vinblastine IC50 to compound IC50 for vinblastine-sensitive human HCT116 cells by phosphatase assay; type: functional
HCT-116/VM46 [33] = experiment: Ratio of vinblastine IC50 to compound IC50 for vinblastine-resistant human HCT116/VM46 cells overexpressing P-gp by phosphatase assay; type: functional
L1210 [34] = experiment: Ratio of vinblastine IC50 to compound IC50 for mouse L1210 cells by phosphatase assay; type: functional
Tubulin (Sus scrofa) = Tubulin (Sus scrofa) (UniProt P02554+P02550); experiment: Displacement of [3H]-VBL from porcine tubulin after 60 mins relative to control; type: protein assay
Sequence of Tubulin (Sus scrofa) (P02550 whole entry, looked up): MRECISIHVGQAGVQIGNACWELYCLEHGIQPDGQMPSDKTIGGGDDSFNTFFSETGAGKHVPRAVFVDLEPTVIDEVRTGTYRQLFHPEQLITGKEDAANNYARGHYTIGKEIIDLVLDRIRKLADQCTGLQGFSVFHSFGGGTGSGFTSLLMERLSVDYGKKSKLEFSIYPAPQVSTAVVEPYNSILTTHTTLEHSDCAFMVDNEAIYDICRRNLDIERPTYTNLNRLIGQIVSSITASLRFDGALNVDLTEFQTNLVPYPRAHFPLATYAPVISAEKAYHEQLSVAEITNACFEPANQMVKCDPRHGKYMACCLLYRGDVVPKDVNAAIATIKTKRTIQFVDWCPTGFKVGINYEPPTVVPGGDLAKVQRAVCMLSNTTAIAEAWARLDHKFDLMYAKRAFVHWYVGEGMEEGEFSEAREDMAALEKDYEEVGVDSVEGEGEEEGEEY
Sequence of Tubulin (Sus scrofa) (P02554 whole entry, looked up): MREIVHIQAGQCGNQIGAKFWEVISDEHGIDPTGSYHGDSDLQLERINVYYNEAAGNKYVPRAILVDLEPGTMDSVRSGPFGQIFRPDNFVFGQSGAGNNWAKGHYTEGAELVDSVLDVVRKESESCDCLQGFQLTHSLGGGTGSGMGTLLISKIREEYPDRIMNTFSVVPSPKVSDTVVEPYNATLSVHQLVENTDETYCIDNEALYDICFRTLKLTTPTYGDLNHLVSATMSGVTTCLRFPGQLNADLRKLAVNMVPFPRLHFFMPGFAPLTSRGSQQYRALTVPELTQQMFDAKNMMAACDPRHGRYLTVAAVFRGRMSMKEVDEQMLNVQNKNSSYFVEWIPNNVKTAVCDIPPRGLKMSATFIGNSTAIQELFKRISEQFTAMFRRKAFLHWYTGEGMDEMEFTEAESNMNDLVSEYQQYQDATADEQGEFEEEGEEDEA

Molecule `CC[C@]1(NC(=O)N2CCCC2)C[C@H]2CN(CCc3c([nH]c4ccccc34)[C@@](C(=O)OC)(c3cc4c(cc3OC)N(C)[C@H]3[C@@](O)(C(=O)OC)[C@H](OC(C)=O)[C@]5(CC)C=CCN6CC[C@]43[C@@H]65)C2)C1` has an IC50 (HCT-116 [1]) of 0.72 nM, an IC50 (HCT-116/VM46 [2]) of 50 nM and an IC50 (L1210 [3]) of 0.7 nM.
In the case of `CC[C@]1(NC(=O)N2CCC(c3ccccc3)CC2)C[C@H]2CN(CCc3c([nH]c4ccccc34)[C@@](C(=O)OC)(c3cc4c(cc3OC)N(C)[C@H]3[C@@](O)(C(=O)OC)[C@H](OC(C)=O)[C@]5(CC)C=CCN6CC[C@]43[C@@H]65)C2)C1`, the IC50 (HCT-116 [1]) is reported as 3.1 nM, the IC50 (HCT-116/VM46 [2]) is reported as 55 nM and the IC50 (L1210 [3]) is reported as 5.3 nM.
With `CC[C@]1(NC(=O)N2CC=CCC2)C[C@H]2CN(CCc3c([nH]c4ccccc34)[C@@](C(=O)OC)(c3cc4c(cc3OC)N(C)[C@H]3[C@@](O)(C(=O)OC)[C@H](OC(C)=O)[C@]5(CC)C=CCN6CC[C@]43[C@@H]65)C2)C1` the “Ratio IC50” value (HCT-116/VM46 [4]) was 10, the “Ratio IC50” value (PA-1 [5]) was 10 and the “Ratio IC50” value (ZR-75-1 [6]) was 10. For the same molecule, the “Ratio IC50” value (T47D [7]) was 10, the “Ratio IC50” value [8] was 10 and the “Ratio IC50” value (MDA-MB-468 [9]) was 10. For the same molecule, the “Ratio IC50” value (LS174T) was 10, the “Ratio IC50” value [10] was 10 and the “Ratio IC50” value [11] was 10. The “Ratio IC50” value (HCT-116 [12]) was 10, the “Ratio IC50” value (HCC70 [13]) was 10 and the “Ratio IC50” value (HCC1143 [14]) was 10. The “Ratio IC50” value (NCI-H520 [15]) was 10, the “Ratio IC50” value (AU565 [16]) was 10 and the “Ratio IC50” value (HCT-116 [17]) was 13. It also gave an IC50 (HCT-116/VM46 [18]) of 6.4 nM, an IC50 (PA-1 [19]) of 0.11 nM and an IC50 (T47D [20]) of 0.51 nM. It also gave an IC50 (ZR-75-1 [21]) of 0.71 nM, an IC50 [22] of 0.5 nM and an IC50 (MDA-MB-468 [23]) of 0.4 nM. The IC50 (MCF7) was > 12.5 nM, the IC50 [24] was 0.46 nM and the IC50 [25] was 0.45 nM. It also gave an IC50 [26] of 0.06 nM, an IC50 (HCC70 [27]) of 0.21 nM and an IC50 (HCT-116 [28]) of 0.22 nM. The IC50 (HCC1143 [29]) was 0.13 nM, the IC50 (NCI-H520 [30]) was 0.17 nM and the IC50 (AU565 [31]) was 0.15 nM. The “Ratio IC50” value (HCT-116 [32]) was 10, the “Ratio IC50” value (HCT-116/VM46 [33]) was 80 and the “Ratio IC50” value (L1210 [34]) was 10. For the same molecule, the IC50 (HCT-116 [1]) was 0.52 nM, the IC50 (HCT-116/VM46 [2]) was 8.4 nM and the IC50 (L1210 [3]) was 0.52 nM.
For `CC[C@]1(NC(=O)N2CCOCC2)C[C@H]2CN(CCc3c([nH]c4ccccc34)[C@@](C(=O)OC)(c3cc4c(cc3OC)N(C)[C@H]3[C@@](O)(C(=O)OC)[C@H](OC(C)=O)[C@]5(CC)C=CCN6CC[C@]43[C@@H]65)C2)C1`, the IC50 (L1210 [3]) was 5.3 nM.
For `CC[C@]1(O)C[C@@H]2CN(CCc3c([nH]c4ccccc34)[C@@](C(=O)OC)(c3cc4c(cc3OC)N(C)[C@H]3[C@@](O)(C(=O)OC)[C@H](OC(C)=O)[C@]5(CC)C=CCN6CC[C@]43[C@@H]65)C2)C1` [VINBLASTINE], the IC50 (HCT-116/VM46 [18]) was > 110 nM, the IC50 (PA-1 [19]) was 4.6 nM and the IC50 (T47D [20]) was 5 nM. It also gave an IC50 (ZR-75-1 [21]) of 8 nM, an IC50 [22] of 7.9 nM and an IC50 (MDA-MB-468 [23]) of 4.6 nM. For the same molecule, the IC50 (MCF7) was > 110 nM, the IC50 [24] was 19.6 nM and the IC50 [25] was 5.1 nM. The IC50 [26] was 2.9 nM, the IC50 (HCC70 [27]) was 3.5 nM and the IC50 (HCC1143 [29]) was 3.8 nM. It also gave an IC50 (NCI-H520 [30]) of 4.5 nM, an IC50 (AU565 [31]) of 4 nM and an Activity (Tubulin (Sus scrofa)) of 50%.
In the case of `CC[C@]1(NC(=O)N2CCN(C)CC2)C[C@H]2CN(CCc3c([nH]c4ccccc34)[C@@](C(=O)OC)(c3cc4c(cc3OC)N(C)[C@H]3[C@@](O)(C(=O)OC)[C@H](OC(C)=O)[C@]5(CC)C=CCN6CC[C@]43[C@@H]65)C2)C1`, the IC50 (HCT-116 [1]) is reported as 3.4 nM, the IC50 (HCT-116/VM46 [2]) is reported as 710 nM and the IC50 (L1210 [3]) is reported as 7.7 nM.
Work on `CC[C@]1(NC(=O)N2CCCCC2)C[C@H]2CN(CCc3c([nH]c4ccccc34)[C@@](C(=O)OC)(c3cc4c(cc3OC)N(C)[C@H]3[C@@](O)(C(=O)OC)[C@H](OC(C)=O)[C@]5(CC)C=CCN6CC[C@]43[C@@H]65)C2)C1` yielded an IC50 (L1210 [3]) of 5.5 nM.
